# What was measured:
# [1] = molecular target: human activated kallikrein enzyme (Homo sapiens, UniProt P03952); experiment: Inhibition of activated plasma kallikrein, fluorogenic peptide substrate (PFR-AMC) assay, 500 pM enzyme format; type: biochemical; settings: 500 pM activated kallikrein, 300 uM PFR-AMC, 30 min preincubation, 10 min reaction, room temperature; read-out: Primary Dose Response Assay: Average EC50
# Summary of the method: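 500 pM enzyme preincubated 30 min at room temperature with inhibitor in 20 mM Tris pH 7.5, 150 mM NaCl, 1 mM EDTA, 0.1% PEG-400, 0.1% Triton X-100. Reaction started with 300 uM PFR-AMC and run 10 min at room temperature. Fluorescence read at 380 nm excitation/460 nm emission.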
# [2] = molecular target: T1, plasma kallikrein (Homo sapiens, UniProt P03952); experiment: Neat human plasma assay: contact pathway-activated (FXIIa) plasma, PFR-AMC substrate; type: biochemical; settings: citrated human plasma (78% final), 10 nM human FXIIa, 100 μM PFR-AMC, room temperature
# T1 construct: from tissue; host or cells: sodium citrate collected human plasma (78% final)
# T1 sequence (P03952 391-638 limits assumed): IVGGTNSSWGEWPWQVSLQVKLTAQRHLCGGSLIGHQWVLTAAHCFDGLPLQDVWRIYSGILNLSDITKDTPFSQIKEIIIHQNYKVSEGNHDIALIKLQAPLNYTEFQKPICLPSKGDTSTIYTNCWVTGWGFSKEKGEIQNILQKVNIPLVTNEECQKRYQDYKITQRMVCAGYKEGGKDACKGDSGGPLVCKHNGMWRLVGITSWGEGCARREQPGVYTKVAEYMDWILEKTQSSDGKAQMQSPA
# T1 sequence (P03952 20-390 partner limits assumed): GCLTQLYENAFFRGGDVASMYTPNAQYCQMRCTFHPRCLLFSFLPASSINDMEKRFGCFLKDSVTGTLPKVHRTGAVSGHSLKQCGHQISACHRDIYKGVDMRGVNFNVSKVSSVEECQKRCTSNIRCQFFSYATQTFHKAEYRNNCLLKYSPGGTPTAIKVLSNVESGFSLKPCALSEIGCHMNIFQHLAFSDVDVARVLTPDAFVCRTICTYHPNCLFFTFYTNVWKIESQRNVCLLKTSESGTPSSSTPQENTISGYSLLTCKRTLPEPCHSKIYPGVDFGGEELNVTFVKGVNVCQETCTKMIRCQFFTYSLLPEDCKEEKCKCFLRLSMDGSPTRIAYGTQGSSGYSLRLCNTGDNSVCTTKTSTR
# Method: To analyze inhibition of plasma kallikrein in an ex vivo setting, the potency of compounds was measure in contact pathway-activated plasma assays. In a fluorogenic peptide substrate assay, test compounds dissolved in DMSO were added to sodium citrate collected human or rat plasma in a 96-well microplate. Alternatively, citrated plasma was collected from rats administered the compounds orally or by IV. 10 nM of human FXIIa (Enzyme Research Laboratories) diluted in pKal buffer (20 mM Tris-HCl, pH 7.5, 150 mM NaCl, 1 mM EDTA, 0.1% PEG-8000, and 0.1% Triton X-100) was added to the plasma, followed by the 100 μM of the profluorescent, synthetic plasma kallikrein substrate PFR-AMC (also diluted in pKal buffer). Final plasma concentration in the reaction was 78%. Fluorescence was immediately monitored by excitation/emission wavelengths of 360 nm/480 nm respectively over a period of 5 minutes in a microplate reader. The resulting linear increase in fluorescence emission (reflecting pKal proteolysis of PFR-AMC substrate) was fit to extract a proteolytic rate (fluorescent units over time), and this rate was subsequently plotted against compound inhibitor concentration. Resulting plots were fit to a standard 4-parameter IC50/IC90 equation to determine min/max values, IC50/90, and slope. All experimental steps were performed at room temperature.
# Chain of human activated kallikrein enzyme (P03952 391-638 limits assumed): as the sequence (P03952 391-638 limits assumed) above
# Chain of human activated kallikrein enzyme (P03952 20-390 partner limits assumed): as the sequence (P03952 20-390 partner limits assumed) above
EC50 [1] [nM],IC90 [2] [nM],Compound
1 to 10,400 to 1500,"COc1cc(NCc2cn3cc(C)cc(N4CC(=O)N(C)C4=O)c3n2)cc2nc([C@H]3C[C@@H]3c3nccc(C)n3)ccc12 (racemic) [Example 104, rac-1-(2-(((5-methoxy-2-((1S*,2S*)-2-(4-methylpyrimidin-2-yl)cyclopropyl)quinolin-7-yl)amino)methyl)-6-methylimidazo[1,2-a]pyridin-8-yl)-3-methylimidazolidine-2,4-dione]"
≤ 1,≤ 400,"Cc1ccnc([C@H]2C[C@@H]2C2=NS(=O)(=O)c3ccc(NCc4cn5cc(C6CC6)cc(F)c5n4)cc3N2)n1 [Example 105, 6-(((6-cyclopropyl-8-fluoroimidazo[1,2-a]pyridin-2-yl)methyl)amino)-3-((1S,2S)-2-(4-methylpyrimidin-2-yl)cyclopropyl)-4H-benzo[e][1,2,4]thiadiazine 1,1-dioxide]"
≤ 1,≤ 400,"Cc1ccnc([C@H]2C[C@@H]2c2cc(N3CCS(=O)(=O)CC3)c3ccc(NCc4cn5cc(C6CC6)cc(N6CC(=O)N(C)C6=O)c5n4)cc3n2)n1 [Example 37, 1-(6-cyclopropyl-2-(((4-(1,1-dioxidothiomorpholino)-2-((1S,2S)-2-(4-methylpyrimidin-2-yl)cyclopropyl)quinolin-7-yl)amino)methyl)imidazo[1,2-a]pyridin-8-yl)-3-methylimidazolidine-2,4-dione]"
≤ 1,1500 to 10000,"CCN1CCN(c2cc(C3CC3)cn3cc(CNc4ccc5ccc([C@H]6C[C@@H]6c6nccc(C)n6)nc5c4)nc23)CC1 (racemic) [Example 74, rac-N-((6-cyclopropyl-8-(4-ethylpiperazin-1-yl)imidazo[1,2-a]pyridin-2-yl)methyl)-2-((1S*,2S*)-2-(4-methylpyrimidin-2-yl)cyclopropyl)quinolin-7-amine]"
≤ 1,1500 to 10000,"Cc1ccnc([C@H]2C[C@@H]2C2=NS(=O)(=O)c3ccc(OCc4cn5cc(C6CC6)ccc5n4)cc3N2)n1 [Example 91, 6-((6-cyclopropylimidazo[1,2-a]pyridin-2-yl)methoxy)-3-((1S,2S)-2-(4-methylpyrimidin-2-yl)cyclopropyl)-4H-benzo[e][1,2,4]thiadiazine 1,1-dioxide]"
1 to 10,400 to 1500,"COc1cc([C@H]2C[C@@H]2c2nccc(C)n2)nc2cc(N3C[C@@H](O)C[C@@H]3c3cn4cc(C5CC5)cc(N5CC(=O)N(C)C5=O)c4n3)ccc12 (relative stereo) [Example 67, rac-1-(6-cyclopropyl-2-((2R,4S)-4-hydroxy-1-(4-methoxy-2-((1S*,2S*)-2-(4-methylpyrimidin-2-yl)cyclopropyl)quinolin-7-yl)pyrrolidin-2-yl)imidazo[1,2-a]pyridin-8-yl)-3-methylimidazolidine-2,4-dione]"
≤ 1,≤ 400,"Cc1ccnc([C@H]2C[C@@H]2c2cc(NCC(C)(C)O)c3ccc(NCc4cn5cc(C6CC6)cc(N6CC(=O)N(C)C6=O)c5n4)cc3n2)n1 [Example 38, 1-(6-cyclopropyl-2-(((4-((2-hydroxy-2-methylpropyl)amino)-2-((1S,2S)-2-(4-methylpyrimidin-2-yl)cyclopropyl)quinolin-7-yl)amino)methyl)imidazo[1,2-a]pyridin-8-yl)-3-methylimidazolidine-2,4-dione]"
1 to 10,1500 to 10000,"Cc1ccnc([C@H]2C[C@@H]2c2ccc3ccc(N4C[C@@H](O)C[C@@H]4c4cn5cc(C6CC6)cc(N6CC(=O)N(C)C6=O)c5n4)cc3n2)n1 (relative stereo) [Example 68, rac-1-(6-cyclopropyl-2-((2R,4S)-4-hydroxy-1-(2-((1S*,2S*)-2-(4-methylpyrimidin-2-yl)cyclopropyl)quinolin-7-yl)pyrrolidin-2-yl)imidazo[1,2-a]pyridin-8-yl)-3-methylimidazolidine-2,4-dione]"
≤ 1,1500 to 10000,"Cc1ccnc([C@H]2C[C@@H]2c2ccc3ccc(NCc4cn5cc(C6CC6)cc(N6CC(=O)N(C)C6=O)c5n4)cc3n2)n1 (racemic) [Example 57, rac-1-(6-cyclopropyl-2-(((2-((1S*,2S*)-2-(4-methylpyrimidin-2-yl)cyclopropyl)quinolin-7-yl)amino)methyl)imidazo[1,2-a]pyridin-8-yl)-3-methylimidazolidine-2,4-dione]"
≤ 1,400 to 1500,"Cc1ccnc([C@H]2C[C@@H]2c2cc(=O)c3ccc(NCc4cn5cc(C6CC6)cc(N6CC(=O)N(C)C6=O)c5n4)cc3[nH]2)n1 (racemic) [Example 11, rac-1-(6-cyclopropyl-2-(((2-((1S*,2S*)-2-(4-methylpyrimidin-2-yl)cyclopropyl)-4-oxo-1,4-dihydroquinolin-7-yl)amino)methyl)imidazo[1,2-a]pyridin-8-yl)-3-methylimidazolidine-2,4-dione]"
1 to 10,1500 to 10000,"Oc1cc([C@H]2C[C@@H]2c2cccc(Cl)c2)nc2cc(NCc3cn4cc(C5CC5)ccc4n3)ccc12 [Example 51, 2-((1S,2S)-2-(3-chlorophenyl)cyclopropyl)-7-(((6-cyclopropylimidazo[1,2-a]pyridin-2-yl)methyl)amino)quinolin-4-ol]"
≤ 1,400 to 1500,"Cc1ccnc([C@H]2C[C@@H]2c2cc(C(C)(C)O)c3ccc(NCc4cn5cc(C6CC6)cc(N6CC(=O)N(C)C6=O)c5n4)cc3n2)n1 (racemic) [Example 95, rac-1-(6-cyclopropyl-2-(((4-(2-hydroxypropan-2-yl)-2-((1S*,2S*)-2-(4-methylpyrimidin-2-yl)cyclopropyl)quinolin-7-yl)amino)methyl)imidazo[1,2-a]pyridin-8-yl)-3-methylimidazolidine-2,4-dione]"
1 to 10,1500 to 10000,"Cc1ccnc([C@H]2C[C@@H]2c2cc(O)c3ccc(N4C[C@@H](O)C[C@@H]4c4cn5cc(C6CC6)ccc5n4)cc3n2)n1 (relative stereo) [Example 54, rac-7-((2R,4S)-2-(6-cyclopropylimidazo[1,2-a]pyridin-2-yl)-4-hydroxypyrrolidin-1-yl)-2-((1S*,2S*)-2-(4-methylpyrimidin-2-yl)cyclopropyl)quinolin-4-ol]"
≤ 1,1500 to 10000,"Cc1ccnc([C@H]2C[C@@H]2C2=NS(=O)(=O)c3cc(Cl)c(NCc4cn5cc(C6CC6)ccc5n4)cc3N2)n1 (racemic) [Example 89, rac-7-chloro-6-(((6-cyclopropylimidazo[1,2-a]pyridin-2-yl)methyl)amino)-3-((1S*,2S*)-2-(4-methylpyrimidin-2-yl)cyclopropyl)-4H-benzo[e][1,2,4]thiadiazine 1,1-dioxide]"
≤ 1,400 to 1500,"Cc1ccnc([C@H]2C[C@@H]2C2=NS(=O)(=O)c3ccc(NCc4cn5cc(C6CC6)ccc5n4)cc3N2)n1 (racemic) [Example 64, rac-6-(((6-cyclopropylimidazo[1,2-a]pyridin-2-yl)methyl)amino)-3-((1S*,2S*)-2-(4-methylpyrimidin-2-yl)cyclopropyl)-4H-benzo[e][1,2,4]thiadiazine 1,1-dioxide]"
1 to 10,1500 to 10000,"Cc1ccnc([C@H]2C[C@@H]2c2ccc3ncc(NCc4cn5cc(C6CC6)cc(N6CC(=O)N(C)C6=O)c5n4)cc3n2)n1 (racemic) [Example 14, rac-1-(6-cyclopropyl-2-(((6-((1S*,2S*)-2-(4-methylpyrimidin-2-yl)cyclopropyl)-1,5-naphthyridin-3-yl)amino)methyl)imidazo[1,2-a]pyridin-8-yl)-3-methylimidazolidine-2,4-dione]"

# — patent publication US20240199613A1 (TAKEDA PHARMACEUTICAL COMPANY LIMITED, priority 2021, published 2024)
